Patent US20240041877A1, “DOSAGE REGIME AND METHOD FOR TREATING PULMONARY ARTERIAL HYPERTENSION” (Altavant Sciences GmbH, priority 2019, published 2024)

Assay: Part 2 (MAD): plasma pharmacokinetics after BID oral KAR5585 for 14 days (incl. accumulation ratios and dose proportionality)
[1] = KAR5585 200 mg BID fed, Cohort 3, Day 1 PM, mean
[2] = KAR5585 200 mg BID fed, Cohort 3, Day 7 AM, Day 7/Day 1 accumulation ratio, geo. mean
[3] = KAR5585 200 mg BID fed, Cohort 3, Day 7 AM, Day 7/Day 1 accumulation ratio, mean
[4] = KAR5585 200 mg BID fed, Cohort 3, Day 7 AM, geo. mean
[5] = KAR5585 200 mg BID fed, Cohort 3, Day 7 AM, mean
[6] = KAR5585 200 mg BID fed, Cohort 3, Day 7 PM, Day 7/Day 1 accumulation ratio, geo. mean
[7] = KAR5585 200 mg BID fed, Cohort 3, Day 7 PM, Day 7/Day 1 accumulation ratio, mean
[8] = KAR5585 200 mg BID fed, Cohort 3, Day 7 PM, geo. mean
[9] = KAR5585 200 mg BID fed, Cohort 3, Day 7 PM, mean
[10] = KAR5585 200 mg BID fed, Cohort 3, Day 14 AM, Day 14/Day 1 accumulation ratio, geo. mean
[11] = KAR5585 200 mg BID fed, Cohort 3, Day 14 AM, Day 14/Day 1 accumulation ratio, mean
[12] = KAR5585 200 mg BID fed, Cohort 3, Day 14 AM, geo. mean
[13] = KAR5585 200 mg BID fed, Cohort 3, Day 14 AM, mean
[14] = KAR5585 400 mg BID fed, Cohort 4, Day 1 AM, geo. mean
[15] = KAR5585 400 mg BID fed, Cohort 4, Day 1 AM, mean
[16] = KAR5585 400 mg BID fed, Cohort 4, Day 1 PM, geo. mean
[17] = KAR5585 400 mg BID fed, Cohort 4, Day 1 PM, mean
[18] = KAR5585 400 mg BID fed, Cohort 4, Day 7 AM, Day 7/Day 1 accumulation ratio, geo. mean
[19] = KAR5585 400 mg BID fed, Cohort 4, Day 7 AM, Day 7/Day 1 accumulation ratio, mean
[20] = KAR5585 400 mg BID fed, Cohort 4, Day 7 AM, geo. mean
[21] = KAR5585 400 mg BID fed, Cohort 4, Day 7 AM, mean
[22] = KAR5585 400 mg BID fed, Cohort 4, Day 7 PM, Day 7/Day 1 accumulation ratio, geo. mean
[23] = KAR5585 400 mg BID fed, Cohort 4, Day 7 PM, Day 7/Day 1 accumulation ratio, mean
[24] = KAR5585 400 mg BID fed, Cohort 4, Day 7 PM, geo. mean
[25] = KAR5585 400 mg BID fed, Cohort 4, Day 7 PM, mean
[26] = KAR5585 400 mg BID fed, Cohort 4, Day 14 AM, Day 14/Day 1 accumulation ratio, geo. mean
[27] = KAR5585 400 mg BID fed, Cohort 4, Day 14 AM, Day 14/Day 1 accumulation ratio, mean
[28] = KAR5585 400 mg BID fed, Cohort 4, Day 14 AM, geo. mean
[29] = KAR5585 400 mg BID fed, Cohort 4, Day 14 AM, mean
[30] = power model, PK Day 1 (AM), 100 to 400 mg KAR5585 repeat oral doses, fed
[31] = power model, PK Day 7 (AM), 100 to 400 mg KAR5585 repeat oral doses, fed
[32] = power model, PK Day 14 (AM), 100 to 400 mg KAR5585 repeat oral doses, fed

Source text: Food effect was to be evaluated in Part 1, Period 2.
Pharmacokinetic data were to be summarized descriptively.

Nc1nc(O[C@H](c2ccc(Cl)cc2-c2ccccc2)C(F)(F)F)cc(N2CCC3(CC2)CN[C@H](C(=O)O)C3)n1 [KAR5417, (S)-8-(2-amino-6-((R)-1-(5-chloro-[1,1T-biphenyl]-2-yl)-2,2,2-trifluoroeth-oxy)pyrimidin-4-yl)-2,8-diazaspiro[4.5]decane-3-carboxylic acid]
t1/2 (KAR5585 200 mg BID fed, Cohort 3, Day 1 PM, geo. mean): 5.95 h | AUC0-12 [1]: 2000 ng·h/mL | AUC0-24 [1]: 3700 ng·h/mL | AUC0-24/D [1]: 9.26 (hr*ng/ml)/mg | AUC0-∞ [1]: 2720 ng·h/mL | C12 [1]: 112 ng/mL | Cmax [1]: 322 ng/mL | Cmax/D [1]: 1.61 (ng/ml)/mg | t1/2 [1]: 6.03 h | Tmax (KAR5585 200 mg BID fed, Cohort 3, Day 1 PM, median): 4.0 h | RAUC0-12 [2]: 1.33 | RCmax [2]: 0.989 | RAUC0-12 [3]: 1.34 | RCmax [3]: 1.00 | AUC0-12 [4]: 2150 ng·h/mL | AUC0-∞ [4]: 2610 ng·h/mL | C12 [4]: 87.2 ng/mL | Cmax [4]: 332 ng/mL | Cmax/D [4]: 1.66 (ng/ml)/mg | t1/2 [4]: 4.57 h | AUC0-12 [5]: 2300 ng·h/mL | AUC0-∞ [5]: 2800 ng·h/mL | C12 [5]: 93.1 ng/mL | Cmax [5]: 359 ng/mL | Cmax/D [5]: 1.80 (ng/ml)/mg | t1/2 [5]: 4.61 h | RAUC0-12 [6]: 0.955 | RCmax [6]: 0.645 | RAUC0-12 [7]: 0.984 | RCmax [7]: 0.711 | AUC0-12 [8]: 1490 ng·h/mL | AUC0-24 [8]: 3620 ng·h/mL | AUC0-24/D [8]: 9.05 (hr*ng/ml)/mg | AUC0-∞ [8]: 2270 ng·h/mL | C12 [8]: 131 ng/mL | Cmax [8]: 212 ng/mL | Cmax/D [8]: 1.06 (ng/ml)/mg | t1/2 [8]: 6.48 h | AUC0-12 [9]: 1540 ng·h/mL | AUC0-24 [9]: 3810 ng·h/mL | AUC0-24/D [9]: 9.52 (hr*ng/ml)/mg | AUC0-∞ [9]: 2280 ng·h/mL | C12 [9]: 145 ng/mL | Cmax/D [9]: 1.11 (ng/ml)/mg | t1/2 [9]: 6.64 h | RAUC0-12 [10]: 1.07 | RCmax [10]: 0.854 | RAUC0-12 [11]: 1.09 | RCmax [11]: 0.901 | AUC0-12 [12]: 1670 ng·h/mL | AUC0-24 [12]: 2200 ng·h/mL | AUC0-∞ [12]: 3250 ng·h/mL | C12 [12]: 59.6 ng/mL | Cmax [12]: 281 ng/mL | Cmax/D [12]: 1.40 (ng/ml)/mg | t1/2 [12]: 24.1 h | AUC0-12 [13]: 1820 ng·h/mL | AUC0-24 [13]: 2380 ng·h/mL | AUC0-∞ [13]: 3480 ng·h/mL | C12 [13]: 63.5 ng/mL | C24 [13]: 32.6 ng/mL | Cmax [13]: 319 ng/mL | Cmax/D [13]: 1.59 (ng/ml)/mg | t1/2 [13]: 25.0 h | AUC0-12 [14]: 2920 ng·h/mL | AUC0-∞ [14]: 3400 ng·h/mL | C12 [14]: 90.2 ng/mL | Cmax [14]: 532 ng/mL | Cmax/D [14]: 1.33 (ng/ml)/mg | t1/2 [14]: 3.71 h | AUC0-12 [15]: 3280 ng·h/mL | AUC0-∞ [15]: 3780 ng·h/mL | C12 [15]: 99.3 ng/mL | Cmax [15]: 595 ng/mL | Cmax/D [15]: 1.49 (ng/ml)/mg | t1/2 [15]: 3.80 h | AUC0-12 [16]: 4340 ng·h/mL | AUC0-24 [16]: 7430 ng·h/mL | AUC0-24/D [16]: 9.28 (hr*ng/ml)/mg | AUC0-∞ [16]: 6860 ng·h/mL | C12 [16]: 242 ng/mL | Cmax [16]: 670 ng/mL | Cmax/D [16]: 1.68 (ng/ml)/mg | t1/2 [16]: 5.3 h | AUC0-12 [17]: 4590 ng·h/mL | AUC0-24 [17]: 7870 ng·h/mL | AUC0-24/D [17]: 9.83 (hr*ng/ml)/mg | AUC0-∞ [17]: 7090 ng·h/mL | C12 [17]: 252 ng/mL | Cmax [17]: 739 ng/mL | Cmax/D [17]: 1.85 (ng/ml)/mg | t1/2 [17]: 5.31 h | RAUC0-12 [18]: 2.15 | RCmax [18]: 1.81 | RAUC0-12 [19]: 2.38 | RCmax [19]: 2.00 | AUC0-12 [20]: 6250 ng·h/mL | AUC0-∞ [20]: 7480 ng·h/mL | C12 [20]: 222 ng/mL | Cmax [20]: 960 ng/mL | Cmax/D [20]: 2.40 (ng/ml)/mg | t1/2 [20]: 3.89 h | AUC0-12 [21]: 6600 ng·h/mL | AUC0-∞ [21]: 7840 ng·h/mL | C12 [21]: 240 ng/mL | Cmax [21]: 1000 ng/mL | Cmax/D [21]: 2.51 (ng/ml)/mg | t1/2 [21]: 3.94 h | RAUC0-12 [22]: 1.50 | RCmax [22]: 1.08 | RAUC0-12 [23]: 1.63 | RCmax [23]: 1.18 | AUC0-12 [24]: 4360 ng·h/mL | AUC0-24 [24]: 10600 ng·h/mL | AUC0-24/D [24]: 13.3 (hr*ng/ml)/mg | AUC0-∞ [24]: 6450 ng·h/mL | C12 [24]: 356 ng/mL | Cmax [24]: 574 ng/mL | Cmax/D [24]: 1.44 (ng/ml)/mg | t1/2 [24]: 5.08 h | AUC0-12 [25]: 4610 ng·h/mL | AUC0-24 [25]: 11200 ng·h/mL | AUC0-24/D [25]: 14.0 (hr*ng/ml)/mg | AUC0-∞ [25]: 6520 ng·h/mL | C12 [25]: 396 ng/mL | Cmax/D [25]: 1.52 (ng/ml)/mg | t1/2 [25]: 5.10 h | RAUC0-12 [26]: 1.43 | RCmax [26]: 1.35 | RAUC0-12 [27]: 1.65 | RCmax [27]: 1.54 | AUC0-12 [28]: 4160 ng·h/mL | AUC0-24 [28]: 5410 ng·h/mL | AUC0-24/D [28]: 13.5 (hr*ng/ml)/mg | AUC0-∞ [28]: 8120 ng·h/mL | C12 [28]: 140 ng/mL | C24 [28]: 73.3 ng/mL | Cmax [28]: 717 ng/mL | Cmax/D [28]: 1.79 (ng/ml)/mg | t1/2 [28]: 30.4 h | AUC0-24 [29]: 5660 ng·h/mL | AUC0-24/D [29]: 14.1 (hr*ng/ml)/mg | AUC0-∞ [29]: 8500 ng·h/mL | C12 [29]: 149 ng/mL | Cmax [29]: 749 ng/mL | Cmax/D [29]: 1.87 (ng/ml)/mg | t1/2 [29]: 30.6 h | Dose proportionality analysis, AUC0-12: Intercept estimate [30]: 0.828 | Dose proportionality analysis, AUC0-inf: Intercept estimate [30]: 1.12 | Dose proportionality analysis, Cmax: Intercept estimate [30]: 0.167 | Dose proportionality analysis, AUC0-12: Intercept estimate [31]: 2.63 | Dose proportionality analysis, Cmax: Intercept estimate [31]: 0.393 | Dose proportionality analysis, AUC0-12: Intercept estimate [32]: 5.18 | Dose proportionality analysis, Cmax: Intercept estimate [32]: 0.877
